“Also recorded” adds a separate entry of the source.
Tests used:
[1] = tested on: MDA7, MDA-MB-231, SUM149, and SUM190; assay: Anchorage-independent growth in soft agar, four breast tumor models; type: cell-based; settings: MDA7, MDA-MB-231, SUM149, SUM190; 28 days
Experimental: Assay for anchorage-independent growth in soft agar Cells (5×10^5) were suspended in 1× DMEM/HEPES, 10% heat-inactivated FBS, 0.13% bicarbonate, and 0.33% BBL agar. The cells were plated on 1% base agar plates (60 mm) containing 1× DMEM/HEPES, 10% heat-inactivated FBS, and 1% BBL agar. Fresh serum-containing medium was fed to the cells on 3-day intervals. The dishes were then incubated at 37° C. with 5% CO2 for 28 days. The colonies that grew in soft agar were photographed and counted. Data are expressed as the number of colonies formed per plate±S.E.M. and three plates were counted per cell line.

[2] = tested on: xenografts of MDA-MB-468 cells; assay: MDA-MB-468 xenograft in nude mice, intratumoral injection; type: in vivo
Experimental: After 15 days mice were separated into three groups. Group 1 received PBS, group 2 received 20% hydroxypropyl-β-cyclodextrin (Trappsol) in PBS and group 3 received 10 mM of the compound in 20% Trappsol/PBS. Injections of 50 μL were made directly into the tumors. PBS is a phosphate buffered saline having pH7. Mice were treated daily for 5 days, given two days of rest and were treated for 5 days. On day 16 mice were treated and two hours later tumors were harvested, divided into two parts. The first part was frozen and the other was fixed in formalin for immunohistochemistry. Average tumor volume increased 2.3 and 2.5-fold in PBS and Trappsol/PBS vehicle controls, respectively.
Efficacy of Compound of Example 1 in animal models. […] Nu/nu Nude mice were injected in the mammary fat pad with 2×10^6 MDA-MB-468 cells suspended in matrigel. After 15 days mice were separated into three groups. Group 1 received PBS, group 2 received 20% hydroxypropyl-β-cyclodextrin (Trappsol) in PBS and group 3 received 10 mM of the compound of Example 1 in 20% Trappsol/PBS. PBS is a phosphate buffered saline with pH7. Injections of 50 μL were made directly into the tumors. Mice were treated daily for 5 days, given two days of rest and were treated for 5 days. On day 16 mice were treated and two hours later tumors were harvested, divided into two parts. The first part was frozen and the other was fixed in formalin for immunohistochemistry.

[3] = tested on: MDA-MB-231 and SUM149 cells; assay: Vasculogenic mimicry exhibited by breast cancer cells; type: cell-based; settings: 5 μM in DMSO; 24 hours
Experimental: Cells were treated with 5 μM of the compounds from examples 1 and 8 formulated in DMSO or with DMSO alone as a control. To highlight the matrix-associated vascular channels that were formed, cells were stained with periodic acid-Schiff (PAS) reagent. Representative photographs were taken at 24 hours at —10 magnification. Each experiment was repeated 3 times.

[4] = biological target: STAT3 (Homo sapiens, UniProt P40763); assay: Inhibition of Stat3 tyrosine705 phosphorylation in MDA-MB-468 cells; type: cell-based; set-up: host or cells: MDA-MB-468 breast tumor cells; settings: 2 h; for inhibition of Tyr705 phosphorylation of Stat3 (potency in words): prodrug in DMSO
Experimental: Inhibition of Stat3 tyrosine705 phosphorylation in MDA-MB-468 cells. MDA-MB-468 breast tumor cells (0.4×10^6) were plated onto 35 mm culture dishes and were allowed to grow overnight. Prodrugs were prepared as 10 mM stock solutions in DMSO and aliquots were added to the culture media to give the correct final concentrations. After 2 h the cells were washed with ice cold phosphate buffered saline. Washed cells were treated with lysis buffer (50 mM Hepes, pH 7.4, 150 mM NaCl, 1.5 mM MgCl2, 1 mM EGTA, 100 mM NaF, 10 mM sodium pyrophosphate, 10% glycerol, 1% Triton X-100, 1 mM PMSF, 1 mM Na3VO4, 10 μg/mL leupeptin and 10 μg/mL aprotinin). Cell-free detergent extracts were centrifuged at 15,000 rpm in a microcentriguge for 30 min at 4° C. and the protein concentrations of the supernatants determined. Aliquots containing 12 μg of protein were separated on 8% SDS-PAGE and were transferred to PVDF filters. The filters were blocked with 5% bovine serum albumin and were probed with pStat3^Y705 antibody followed by secondary antibody, whose signal was detected with an enhanced chemiluminescence kit (ECL, Amersham, Chicago, Ill.). Filters were stripped with stripping buffer (62.5 mM Tris, pH 6.8, 2% SDS, and 0.1 M 2-mercaptoethanol) at 50° C. for 30 min. Filters were then probed with total Stat3 antibody and visualized with chemiluminescence as above.

[5] = tested on: HUVEC cells; assay: Inhibition of tube formation in HUVEC cells; type: cell-based; settings: overnight; 0.01-5.0 μM tested
Experimental: Inhibition of tube formation in HUVEC cells. […] Briefly, 1×10^4 HUV endothelial cells were seeded on the surface of the polymerized EC matrix gel per well, treated with either DMSO or 0.01 μM, 0.1 μM, 0.2 μM, 0.5 μM, 1.0 μM, 2.0 μM, and 5.0 μM of the compound from Example 1 and the compound from Example 16. The cells were incubated overnight at 37° C. The next day the tubes were observed and the images were captured using a Nikon phase contrast inverted microscope.

[6] = tested on: MDA-MB-468 breast cancer cells; assay: Inhibition of growth of MDA-MB-468 breast cancer cells (MTT); type: cell-based, human; settings: 72 hr
Experimental: MDA MB 468 cells were plated at 1500 cells/well DMEM with high glucose 10% FBS. Cells were plated into 96 well plates (1500 cells per well) in. After 24 h the media was changed and cells were treated with DMSO or increasing amounts of the compound of Example 1 in DMSO. All wells had equal concentrations of DMSO. At 72 hr viability was measured with the MTT assay. […] In the mixtures of compounds of Examples 16, 22, 1 and 8. the total concentration of the drug is as listed on the X-axis. However, the mixtures are equimolar amounts of both drugs. For example, 5 μM of the drug is actually 2.5 μM of the compound of Example 16 and 2.5 μM the compound of Example 22. The same is true for the mixture of compounds Example 1 and Example 8.

Chain of STAT3 (P40763 whole entry): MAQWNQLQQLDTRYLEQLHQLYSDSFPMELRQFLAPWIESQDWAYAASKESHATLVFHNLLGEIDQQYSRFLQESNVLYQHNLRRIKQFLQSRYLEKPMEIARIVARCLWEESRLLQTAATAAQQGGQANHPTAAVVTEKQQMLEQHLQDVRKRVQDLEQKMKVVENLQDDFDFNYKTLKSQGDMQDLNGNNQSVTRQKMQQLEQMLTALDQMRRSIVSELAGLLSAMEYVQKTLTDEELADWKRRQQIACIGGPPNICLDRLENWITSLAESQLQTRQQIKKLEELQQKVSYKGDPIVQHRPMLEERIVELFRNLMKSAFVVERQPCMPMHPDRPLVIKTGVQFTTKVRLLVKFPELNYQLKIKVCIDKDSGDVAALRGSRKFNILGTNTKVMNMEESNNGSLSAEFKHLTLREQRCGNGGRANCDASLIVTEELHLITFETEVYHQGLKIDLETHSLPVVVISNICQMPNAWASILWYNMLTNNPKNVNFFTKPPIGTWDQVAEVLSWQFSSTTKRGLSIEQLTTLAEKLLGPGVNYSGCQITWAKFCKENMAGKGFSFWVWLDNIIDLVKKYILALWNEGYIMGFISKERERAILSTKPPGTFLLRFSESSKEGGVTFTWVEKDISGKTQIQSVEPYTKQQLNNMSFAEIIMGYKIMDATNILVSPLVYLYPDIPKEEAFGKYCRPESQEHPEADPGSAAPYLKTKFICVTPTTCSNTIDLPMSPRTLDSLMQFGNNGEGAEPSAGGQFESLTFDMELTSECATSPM

| concentration as low as which partial inhibition of STAT3 phosphorylation was seen [4] [nM] | concentration at which complete inhibition of STAT3 phosphorylation occurred [4] [nM] | inhibition of Tyr705 phosphorylation of Stat3 (potency in words) [4] | SMILES | colony formation in soft agar, four breast tumor models [1] | growth of breast tumor xenograft ([2]; 10 mM in 20% Trappsol/PBS, 50 μL intratumoral) | increase in average tumor volume ([2]; 10 mM in 20% Trappsol/PBS, 50 μL intratumoral, vehicles 2.3 and 2.5-fold) [fold] | tumor center histology (cellularity, necrosis) ([2]; centers / interior of tumors) | tumor vascularity (CD31 staining, microvessels) ([2]; centers / interior of tumors) | Ki-67 staining of proliferating cells ([2]; treated tumors) | phosphorylation of STAT3 in treated tumors vs vehicle controls ([2]; tumors harvested 2 h after last treatment) | vasculogenic mimicry [3] | concentration at which significant reduction in tube formation was observed [5] [µM] | potency in MTT viability assay relative to Example 1 [6] |
| --- | --- | --- | --- | --- | --- | --- | --- | --- | --- | --- | --- | --- | --- |
| 10 | 500 | very potent inhibitors | C/C(=C\C(=O)N[C@H]1CCc2cccc3c2N(C1=O)[C@H](C(=O)N[C@H](C)CCC(N)=O)C3)c1ccc(C(F)(F)P(=O)(OCOC(=O)C(C)(C)C)OCOC(=O)C(C)(C)C)cc1 [Example 1, (2E)-3-[4-[[bis[(2,2-dimethyl-1-oxopropoxy)methoxy]phosphinyl]difluoromethyl]phenyl]-but-2-enoyl-Haic-(R)-4-aminopentamide] | effectively inhibited colony formation | inhibited; also recorded: inhibits the growth | 1.6 | necrosis; also recorded: notably acellular | avascular | decrease in Ki-67 staining | reduced; also recorded: strongly inhibited | Significant reduction |  |  |
| 10 | 500 | very potent inhibitors | CCCC[C@H](NC(=O)/C=C(\C)c1ccc(C(F)(F)P(=O)(OCOC(=O)C(C)(C)C)OCOC(=O)C(C)(C)C)cc1)C(=O)N1C[C@H]2CC2[C@H]1C(=O)N[C@@H](CCC(N)=O)[C@@H](C)OCc1ccccc1 (stereo partly drawn) [Example 16, (2E)-3-[4-[[bis[(2,2-dimethyl-1-oxopropoxy)methoxy]phosphinyl]difluoromethyl]phenyl]-but-2-enoyl-norleucinyl-(2S,3R,4S)-methanoprolinyl-(4S,5R)-4-amino-5-benzyloxyhexamide] |  |  |  |  |  |  |  |  | 2 | somewhat more potent |
